Laboratory results as given in patent US12441733B2, “Substituted 2,4-dioxotetrahydropyrimidines as intermediates in the synthesis of bruton's tyrosine kinase inhibitors” (Novartis AG, priority 2018, dated 2025).
Like-named read-outs stand apart in the source and are kept apart here.

Legend:
Type in all cases: cell-based
BTK-GFP = biological target: T1, BTK-GFP (Homo sapiens, UniProt Q06187+Q96SW2); assay: BTK-GFP protein abundance flow cytometry assay in HEK293A cells; settings: HEK293A BTK-GFP-iresRFP cells, 24 h; for DC50: GFP signal by flow cytometry, concentration at which 50% maximal degradation was observed; for BTK deg Amax: % protein remaining at the concentration at which maximum degradation is seen
T1 construct: expressed in transfected cells; host or cells: HEK293A (Invitrogen R70507), lentiviral transduction with pLenti6-BTK-GFP-Ires-RFP, blasticidin selection
Experimental: (§1) Compounds of the invention were tested in the following cellular assays. The terms in Table 2 are defined as follows: DC50 refers to the concentration at which 50% maximal degradation was observed; deg Amax is the extent of degradation and the value refers to the % protein remaining at the concentration at which maximum degradation is seen; ProI GI50 refers to the proliferation data and defines the concentration at which 50% growth inhibition was observed compared to the vehicle treated control at the end of the incubation time. TMD8 cells are BTK dependent and OCI-LY3 cells are BTK independent.
BTK-GFP and IKZF3-GFP protein abundance flow cytometry assay in HEK293A cells:
Degradation of BTK or IKZF3 was measured in HEK293A cells (Invitrogen R70507) expressing either BTK-GFP and RFP or IKZF3-GFP and RFP from a stably integrated bicistronic BTK-GFP-iresRFP or IKZF3-GFP-iresRFP construct, respectively. Reduction of the GFP signal measured by flow cytometry served as readout for BTK or IKZF3 degradation after degrader treatment.
i) Cloning of the pLenti6-BTK-GFP-1Res-RFP and IKZF3-GFP-Ires-RFP Sensor Vectors
The bicistronic BTK-GFP-iresRFP construct is based on a pLenti6-DEST vector backbone where GFP was introduced into the unique Xho1 site downstream of the destination cassette (DEST) and RFP was cloned behind an internal ribosomal entry site (Ires).
In detail, the sensor construct was engineered by replacing NanoLuciferase (NLuc) by GFP and FireFly luciferase (FF) by RFP from pLenti6-DEST-NLuc-Ires-FF.
The pLenti6-DEST-NLuc-Ires-FF sensor construct was cloned by replacing eGFP from pLenti6-DEST-ires-eGFP with a synthesized stuffer element (encoding Ires-FF with FF flanked by two Nhe1 restriction sites) using blunt end cloning replacing Ires-eGFP between the two PmII. To enable C-terminal tagging with NanoLuciferase (NLuc), NLuc was amplified from pNL1.1 (Promega #N1001) using linker primers with Xho1 sites for ligating into linearized pLenti6-DEST-Ires-FF using Xho1 digest resulting in the construct pLenti6-DEST-NLuc-Ires-FF.
The pLenti6-DEST-NLuc-Ires-FF served as base vector for cloning pLenti6-DEST-GFP-Ires-RFP using Gibson assembly to replace FF with RFP and NLuc with GFP. In a first round FF was replaced by RFP by amplifying RFP from a template using the following Gibson assembly linker primers (Gibson-Nhe1 RFPfw, […]gctagc[…] (SEQ ID NO: 1); Gibson-Nhe1 RFP-Stoprev, […]ctagc[…] (SEQ ID NO: 2)) to clone into pLenti6-DEST-NLuc-Ires-FF digested with Nhe1 and gel-purified to remove the FF fragment. The resulting pLenti6-DEST-NLuc-Ires-RFP vector served as the template to replace NLuc with GFP by amplifying GFP from a template using following Gibson assembly linker primers (Gibson-Xho1 GFPfw, […]c[…] (SEQ ID NO: 3); Gibson-Xho1 GFP-Stoprev, […] (SEQ ID NO: 4)) to clone into pLenti6-DEST-NLuc-Ires-RFP digested with Xho1 and gel-purified to remove the NLuc fragment. All Gibson assembly reactions were performed with Gibson assembly Master Mix (New England Biolabs NEB E261 IL) according to manufacturer's manual, resulting in the destination vector pLenti6-DEST-GFP-Ires-RFP to allow Gateway cloning. To enable gateway cloning and C-terminal GFP tagging of BTK, the BTK open reading frame (ORF) was first shuttled from a pcDNA-DEST40-BTK vector (Invitrogen library ID INV_20090504v1) into pDONR221 (Invitrogen 12536-017) vector using a gateway BP reaction according to the manufacturer's manual (Invitrogen 11789-013) resulting in the novel construct pENTR221-BTK. For C-terminal tagging the STOP codon was mutated to a leucine performing a mutagenesis reaction with the following primers (pENTR221-BTK Quikchange STOP-Leu fw, gtcatggatgaagaatccTTGaacccagctttcttgtac; pENTR221-BTK Quikchange STOP-Leu REVC, gtacaagaaagctgggttCAAggattcttcatccatgac) using the QuikChange Lightning mutagenesis kit (Agilent Technologies #210518) according to the manufacturer's manual, resulting in pENTR221-BTK (STOP-Leu). […]

TMD8 cells = assay: Resazurin cell viability (proliferation) assay in TMD8 DLBCL cells; settings: TMD8 cells (BTK dependent), 72 h, 50% growth inhibition vs vehicle, read-out: TMD8 Prol GI50
Experimental: as §1
(§2) Cell Viability Assay in DLBCL (Diffuse Large B-Cell Lymphoma) Cells:
(§3) The effect of the BTK compounds on cell proliferation was measured by a Resazurin (Sigma, #R7017) based cell viability assay. TMD8 (BTK compound sensitive) and OCI-LY3 (BTK compound insensitive) cells were incubated for 72 h at 37° C. and 5% CO2 with the corresponding compound, Resazurin is a non-toxic, cell-permeable substrate that is virtually non-fluorescent. Upon entering living cells, Resazurin (Sigma, #R7017) is reduced to highly fluorescent Resorufin. The metabolic activity was assessed by measuring the fluorescence signal (ex. 530 nm; em. 600 nm).
(§4) TMD8 and OCI-Ly3 cells were seeded at day 0 in triplicates at a cell density of 1×10^4 cells per 150 μl/well in a 96-well plate (Costar #3904). Additional plates were prepared, in order to assess the basal metabolic activity of both cell lines at the beginning of the experiment. For these reference plates, Resazurin (Sigma, #R7017) was added to a final concentration of 13 μg/ml 3 h post seeding and was incubated for 2 h at 37° C. and 5% CO2. Following incubation, the fluorescent signal intensity of the 96-well plates was measured on a Mithras LB940 multimode plate reader at 530/600 nm (Berthold Technologies, Germanyl).
(§5) In parallel, 3 h post-seeding, test-plates were treated with compound at various concentrations, or with vehicle (DMSO) alone for 3 days. The compound addition to the plates was performed by using a HP D300 digital dispenser (TECAN, Switzerland). The compounds were tested in triplicate, 8-point serial dilution (1:4), with a start concentration of 10 μM for OCI-LY3 and 1 μM for the TMD8 cells, respectively. To assess the relative proliferation of the cells, Resazurin was added to each well directly to the medium to a final concentration of 13 μg/ml. The plates were incubated for 2 h at 37° C. and 5% CO2 to result in a 72 h endpoint. Following incubation, the fluorescent signal intensity of the 96-well plates were measured on a Mithras LB940 multimode plate reader at 530/600 nm (Berthold Technologies, Germanyl). The formation of Resorufin dye directly correlates with the number of metabolically active cells. For each triplicate treatment the mean and standard deviation were calculated and analyzed via curve fitting software to determine the respective compound concentration resulting in 50% growth inhibition (GI50) values. For each compound GI50 values were typically determined from at least 2 entirely independent experiments.
TMD8 cells were acquired through a license agreement with Tokyo Medical and Dental University, Japan. Cells are cultivated in MEM Alpha (BioConcept, #1-23F01-1, lot. LB04262P) supplemented with 10% FCS (HyClone, GE #SH30066.03, lot AB3217603), 2 mM L-Glutamine (BioConcept, #5-10K50-H, lot. LA03467P), 1% Pen/Strep (BioConcept, #4-01F00-H, lot. LB04235P).

OCI-LY3 cells = assay: Resazurin cell viability (proliferation) assay in OCI-LY3 DLBCL cells; settings: OCI-LY3 cells (BTK independent), 72 h, 50% growth inhibition vs vehicle, read-out: OCI-LY3 Prol GI50
Experimental: as §1, §2, §3, §4, §5
OCI-LY3 cells were acquired through a license agreement with University Health Network, Toronto, Canada. Cells are cultivated in RPM11640 media (Gibco, #61870-010, lot. 1894759), supplemented with 10% FCS (HyClone, GE #SH30066.03, lot AB217603), 2 mM L-Glutamine (BioConcept, #5-10K50-H, lot. LA03467P), 1 mM Sodium Pyruvate (BioConcept, #5-60F00-H, lot. LB10510P), 10 mM HEPES (Gibco, #15630-056, lot. 1854074), 1% Pen/Strep (BioConcept, #4-01F00-H, lot. LB04235P).

T1 sequence (Q06187 whole entry): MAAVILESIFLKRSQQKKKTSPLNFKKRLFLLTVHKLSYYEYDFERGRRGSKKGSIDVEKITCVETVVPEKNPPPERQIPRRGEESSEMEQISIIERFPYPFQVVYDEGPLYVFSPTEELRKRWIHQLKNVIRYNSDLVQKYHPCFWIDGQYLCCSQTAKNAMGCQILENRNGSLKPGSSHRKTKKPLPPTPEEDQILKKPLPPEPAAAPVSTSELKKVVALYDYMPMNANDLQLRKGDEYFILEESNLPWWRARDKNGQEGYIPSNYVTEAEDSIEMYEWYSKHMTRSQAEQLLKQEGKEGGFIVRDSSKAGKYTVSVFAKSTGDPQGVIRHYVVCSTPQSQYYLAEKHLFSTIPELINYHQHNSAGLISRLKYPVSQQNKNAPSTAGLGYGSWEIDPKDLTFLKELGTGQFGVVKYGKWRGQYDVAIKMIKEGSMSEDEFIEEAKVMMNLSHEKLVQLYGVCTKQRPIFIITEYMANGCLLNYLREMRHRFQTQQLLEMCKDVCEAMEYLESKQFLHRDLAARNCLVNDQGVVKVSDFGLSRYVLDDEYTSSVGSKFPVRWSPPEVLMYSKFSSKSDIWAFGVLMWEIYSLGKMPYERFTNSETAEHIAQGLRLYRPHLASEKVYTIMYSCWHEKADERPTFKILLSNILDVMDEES
T1 sequence (Q96SW2 whole entry): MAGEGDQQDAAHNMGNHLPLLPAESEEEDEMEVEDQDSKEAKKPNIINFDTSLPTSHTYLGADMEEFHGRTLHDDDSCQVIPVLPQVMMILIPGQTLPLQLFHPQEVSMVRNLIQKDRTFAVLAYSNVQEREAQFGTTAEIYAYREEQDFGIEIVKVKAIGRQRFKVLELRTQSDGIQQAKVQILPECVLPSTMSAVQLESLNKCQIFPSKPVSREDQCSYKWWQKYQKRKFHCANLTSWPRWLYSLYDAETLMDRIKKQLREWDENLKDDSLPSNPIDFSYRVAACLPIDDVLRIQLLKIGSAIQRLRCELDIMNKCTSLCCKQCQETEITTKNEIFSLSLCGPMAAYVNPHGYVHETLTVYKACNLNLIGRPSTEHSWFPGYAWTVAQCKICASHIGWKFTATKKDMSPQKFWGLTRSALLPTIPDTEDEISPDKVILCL
T1 sequence (Q16531 whole entry partner): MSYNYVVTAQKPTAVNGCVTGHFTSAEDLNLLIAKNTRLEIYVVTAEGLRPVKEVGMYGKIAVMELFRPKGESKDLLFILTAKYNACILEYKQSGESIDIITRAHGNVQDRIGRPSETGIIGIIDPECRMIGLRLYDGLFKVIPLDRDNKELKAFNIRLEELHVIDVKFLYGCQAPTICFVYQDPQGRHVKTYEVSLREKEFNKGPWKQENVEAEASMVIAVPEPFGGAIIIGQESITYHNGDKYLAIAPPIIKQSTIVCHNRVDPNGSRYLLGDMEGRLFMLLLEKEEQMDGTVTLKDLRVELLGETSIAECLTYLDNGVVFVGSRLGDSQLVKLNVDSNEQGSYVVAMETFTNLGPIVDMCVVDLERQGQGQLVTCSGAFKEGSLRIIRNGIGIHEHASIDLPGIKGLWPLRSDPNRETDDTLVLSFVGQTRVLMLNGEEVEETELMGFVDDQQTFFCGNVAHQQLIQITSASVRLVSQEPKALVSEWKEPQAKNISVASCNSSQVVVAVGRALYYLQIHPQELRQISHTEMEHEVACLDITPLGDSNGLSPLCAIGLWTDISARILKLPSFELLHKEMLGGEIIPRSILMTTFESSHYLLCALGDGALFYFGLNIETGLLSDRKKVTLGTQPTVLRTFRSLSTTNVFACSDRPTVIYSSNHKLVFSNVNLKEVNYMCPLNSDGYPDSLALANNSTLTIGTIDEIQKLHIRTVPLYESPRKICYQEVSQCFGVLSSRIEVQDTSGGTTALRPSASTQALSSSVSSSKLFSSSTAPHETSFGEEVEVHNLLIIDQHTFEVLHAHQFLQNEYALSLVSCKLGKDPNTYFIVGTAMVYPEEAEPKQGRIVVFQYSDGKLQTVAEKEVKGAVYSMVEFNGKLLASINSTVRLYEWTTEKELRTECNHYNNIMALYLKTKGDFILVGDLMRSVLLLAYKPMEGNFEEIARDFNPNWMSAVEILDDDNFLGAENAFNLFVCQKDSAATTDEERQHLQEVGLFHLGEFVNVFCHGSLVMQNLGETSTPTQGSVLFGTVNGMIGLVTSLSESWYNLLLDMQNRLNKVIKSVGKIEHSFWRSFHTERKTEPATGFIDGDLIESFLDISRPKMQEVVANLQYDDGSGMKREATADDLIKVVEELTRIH

COc1ccc(C(=O)N2CCC(O[C@H]3CC[C@@H](Oc4ccc(-c5cc6c(-c7cc(F)cc(NC(=O)c8ccc(C(C)(C)O)cc8F)c7C)ncnc6[nH]5)cc4)CC3)CC2)cc1N1CCC(=O)NC1=O [Compound 54, N-(3-(6-(4-(((1s,4s)-4-((1-(3-(2,4-dioxotetrahydropyrimidin-1(2H)-yl)-4-methoxybenzoyl)piperidin-4-yl)oxy)cyclohexyl)oxy)phenyl)-7H-pyrrolo[2,3-d]pyrimidin-4-yl)-5-fluoro-2-methylphenyl)-2-fluoro-4-(2-hydroxypropan-2-yl)benzamide]
DC50 (BTK-GFP): 1.5 nM
BTK deg Amax (BTK-GFP): 4.4%
GI50 (TMD8 cells): 3.56 nM
GI50 (OCI-LY3 cells): > 10000 nM

COc1ccc(C(=O)N2CCN(CCN3CCC(OCc4ccc(-c5cc6c(-c7cc(F)cc(NC(=O)c8ccc(C(C)(C)O)cc8F)c7C)ncnc6[nH]5)cc4)CC3)CC2)cc1N1CCC(=O)NC1=O [Compound 21, N-(3-(6-(4-(((1-(2-(4-(3-(2,4-dioxotetrahydropyrimidin-1(2H)-yl)-4-methoxybenzoyl)piperazin-1-yl)ethyl)piperidin-4-yl)oxyl)methyl)phenyl)-7H-pyrrolo[2,3-d]pyrimidin-4-yl)-5-fluoro-2-methylphenyl)-2-fluoro-4-(2-hydroxypropan-2-yl)benzamide]
DC50 (BTK-GFP): 1.8 nM
BTK deg Amax (BTK-GFP): 3.7%
GI50 (TMD8 cells; Homo sapiens): 0.6 nM
GI50 (OCI-LY3 cells; Homo sapiens): 6830 nM

COc1ccc(C(=O)N2CCN(CCNCCCCOc3ccc(-c4cc5c(-c6cc(F)cc(NC(=O)c7ccc(C(C)(C)O)cc7F)c6C)ncnc5[nH]4)cc3)CC2)cc1N1CCC(=O)NC1=O [Compound 36, N-(3-(6-(4-(4-((2-(4-(3-(2,4-dioxotetrahydropyrimidin-1(2H)-yl)-4-methoxybenzoyl)piperazin-1-yl)ethyl)amino)butoxyl)phenyl)-7H-pyrrolo[2,3-d]pyrimidin-4-yl)-5-fluoro-2-methylphenyl)-2-fluoro-4-(2-hydroxypropan-2-yl)benzamide]
DC50 (BTK-GFP): 37 nM
BTK deg Amax (BTK-GFP): 2.4%
GI50 (TMD8 cells; Homo sapiens): 2.94 nM
GI50 (OCI-LY3 cells; Homo sapiens): > 10000 nM

COc1ccc(C(=O)N2CCC3(CCN(Cc4ccc(-c5cc6c(-c7cc(F)cc(NC(=O)c8ccc(C(C)(C)O)cc8F)c7C)ncnc6[nH]5)cc4)C[C@H]3CO)CC2)cc1N1CCC(=O)NC1=O (single isomer, unassigned) [Compound 25]
DC50 (BTK-GFP): 78.4 nM
BTK deg Amax (BTK-GFP): 7.2%
GI50 (TMD8 cells; Homo sapiens): 11.4 nM
GI50 (OCI-LY3 cells; Homo sapiens): > 10000 nM

COc1ccc(C(=O)N2CCC3(CCN(Cc4ccc(-c5cc6c(-c7cc(F)cc(NC(=O)c8ccc(C(C)(C)O)cc8F)c7C)ncnc6[nH]5)cc4)CC3)C(CO)C2)cc1N1CCC(=O)NC1=O (racemic) [Compound 1, rac-N-(3-(6-(4-((9-(3-(2,4-Dioxotetrahydropyrimidin-1(2H)-yl)-4-methoxybenzoyl)-7-(hydroxymethyl)-3,9-diazaspiro[5.5]undecan-3-yl)methyl)phenyl)-7H-pyrrolo[2,3-d]pyrimidin-4-yl)-5-fluoro-2-methylphenyl)-2-fluoro-4-(2-hydroxypropan-2-yl)benzamide]
DC50 (BTK-GFP): 26.2 nM
BTK deg Amax (BTK-GFP): 4.2%
GI50 (TMD8 cells; Homo sapiens): 3.89 nM
GI50 (OCI-LY3 cells; Homo sapiens): > 10000 nM

Cc1ccc(C(=O)N2CCC(OC3CCN(CCc4ccc(-c5cc6c(-c7cc(F)cc(NC(=O)c8ccc(C(C)(C)O)cc8F)c7C)ncnc6[nH]5)cc4)CC3)CC2)cc1N1CCC(=O)NC1=O [Compound 10, N-(3-(6-(4-(2-(4-((1-(3-(2,4-Dioxotetrahydropyrimidin-1(2H)-yl)-4-methylbenzoyl)piperidin-4-yl)oxyl)piperidin-1-yl)ethyl)phenyl)-7H-pyrrolo[2,3-d]pyrimidin-4-yl)-5-fluoro-2-methylphenyl)-2-fluoro-4-(2-hydroxypropan-2-yl)benzamide]
DC50 (BTK-GFP): 0.7 nM
BTK deg Amax (BTK-GFP): 2.3%
GI50 (TMD8 cells; Homo sapiens): 0.36 nM
GI50 (OCI-LY3 cells; Homo sapiens): 5940 nM
